Data: US12427134B2, “Methods of reducing the risk of cardiovascular events in a subject with atrial fibrillation and/or atrial flutter” (priority 2019, dated 2025)

Test system: hypertriglyceridemic patients with cardiovascular disease or at high risk for cardiovascular disease
Assay: REDUCE-IT: treatment-emergent adverse events and serious adverse events (safety population)
[1] = BMI ≥25 to <30 kg/m^2 (N = 1427)
[2] = No Ezetimibe at baseline (N = 3827)
[3] = Region Eastern Europe (N = 1053)

CC/C=C\C/C=C\C/C=C\C/C=C\C/C=C\CCCC(=O)OCC [AMR101, eicosapentaenoic acid ethyl ester]
Patients with at least 1 TEAE, % (Age <65 years (N = 2232)): (77.3) % | TEAE: GI disorders, % (Age <65 years (N = 2232)): (27.9) % | TEAE: General disorders and administration site condition, % (Age <65 years (N = 2232)): (21.6) % | TEAE: Musculoskeletal and connective tissue disorders, % (Age <65 years (N = 2232)): (31.4) % | TEAE: Nervous system disorders, % (Age <65 years (N = 2232)): (20.3) % | TEAE: Respiratory, thoracic, and mediastinal disorders, % (Age <65 years (N = 2232)): (18.9) % | Patients with at least 1 TEAE, % (Age ≥65 years (N = 1857)): (87.1) % | TEAE: GI disorders, % (Age ≥65 years (N = 1857)): (39.2) % | TEAE: General disorders and administration site condition, % (Age ≥65 years (N = 1857)): (29.5) % | TEAE: Musculoskeletal and connective tissue disorders, % (Age ≥65 years (N = 1857)): (41.2) % | TEAE: Nervous system disorders, % (Age ≥65 years (N = 1857)): (29.7) % | TEAE: Respiratory, thoracic, and mediastinal disorders, % (Age ≥65 years (N = 1857)): (30.5) % | TEAEs, overall incidence (Asia Pacific region subgroup): 76.9% | TEAE class nervous system disorders, patients (Asian Pacific region subgroup): 20.8% | Patients with at least 1 TEAE, % (BMI <25 kg/m^2 (N = 320)): (80.6) % | TEAE: GI disorders, % (BMI <25 kg/m^2 (N = 320)): (33.8) % | TEAE: General disorders and administration site condition, % (BMI <25 kg/m^2 (N = 320)): (23.1) % | TEAE: Musculoskeletal and connective tissue disorders, % (BMI <25 kg/m^2 (N = 320)): (26.9) % | TEAE: Nervous system disorders, % (BMI <25 kg/m^2 (N = 320)): (22.8) % | TEAE: Respiratory, thoracic, and mediastinal disorders, % (BMI <25 kg/m^2 (N = 320)): (21.3) % | Patients with at least 1 TEAE, % [1]: (81.5) % | TEAE: GI disorders, % [1]: (30.8) % | TEAE: General disorders and administration site condition, % [1]: (24.0) % | TEAE: Musculoskeletal and connective tissue disorders, % [1]: (33.4) % | TEAE: Nervous system disorders, % [1]: (23.6) % | TEAE: Respiratory, thoracic, and mediastinal disorders, % [1]: (22.7) % | TEAE class GI disorders, patients (BMI ≥25 to <30 kg/m^2 subgroup): 30.8% | Patients with at least 1 TEAE, % (BMI ≥30 kg/m^2 (N = 2331)): (82.3) % | TEAE: GI disorders, % (BMI ≥30 kg/m^2 (N = 2331)): (34.3) % | TEAE: General disorders and administration site condition, % (BMI ≥30 kg/m^2 (N = 2331)): (26.3) % | TEAE: Musculoskeletal and connective tissue disorders, % (BMI ≥30 kg/m^2 (N = 2331)): (38.7) % | TEAE: Nervous system disorders, % (BMI ≥30 kg/m^2 (N = 2331)): (25.5) % | TEAE: Respiratory, thoracic, and mediastinal disorders, % (BMI ≥30 kg/m^2 (N = 2331)): (25.6) % | Patients with at least 1 TEAE, % (Baseline Ezetimibe (N = 262)): (92.0) % | TEAE: GI disorders, % (Baseline Ezetimibe (N = 262)): (37.4) % | TEAE: General disorders and administration site condition, % (Baseline Ezetimibe (N = 262)): (26.3) % | TEAE: Musculoskeletal and connective tissue disorders, % (Baseline Ezetimibe (N = 262)): (41.2) % | TEAE: Nervous system disorders, % (Baseline Ezetimibe (N = 262)): (23.7) % | TEAE: Respiratory, thoracic, and mediastinal disorders, % (Baseline Ezetimibe (N = 262)): (27.5) % | Patients with at least 1 TEAE, % (CV Risk Category 1 (N = 2892)): (81.6) % | TEAE: GI disorders, % (CV Risk Category 1 (N = 2892)): (31.3) % | TEAE: General disorders and administration site condition, % (CV Risk Category 1 (N = 2892)): (25.3) % | TEAE: Musculoskeletal and connective tissue disorders, % (CV Risk Category 1 (N = 2892)): (33.6) % | TEAE: Nervous system disorders, % (CV Risk Category 1 (N = 2892)): (23.4) % | TEAE: Respiratory, thoracic, and mediastinal disorders, % (CV Risk Category 1 (N = 2892)): (23.4) % | Patients with at least 1 TEAE, % (CV Risk Category 2 (N = 1197)): (82.1) % | TEAE: GI disorders, % (CV Risk Category 2 (N = 1197)): (37.2) % | TEAE: General disorders and administration site condition, % (CV Risk Category 2 (N = 1197)): (24.9) % | TEAE: Musculoskeletal and connective tissue disorders, % (CV Risk Category 2 (N = 1197)): (41.3) % | TEAE: Nervous system disorders, % (CV Risk Category 2 (N = 1197)): (27.4) % | TEAE: Respiratory, thoracic, and mediastinal disorders, % (CV Risk Category 2 (N = 1197)): (26.1) % | Patients with at least 1 TEAE, % (Female (N = 1162)): (79.9) % | TEAE: GI disorders, % (Female (N = 1162)): (38.3) % | TEAE: General disorders and administration site condition, % (Female (N = 1162)): (25.5) % | TEAE: Musculoskeletal and connective tissue disorders, % (Female (N = 1162)): (37.6) % | TEAE: Nervous system disorders, % (Female (N = 1162)): (27.6) % | TEAE: Respiratory, thoracic, and mediastinal disorders, % (Female (N = 1162)): (23.4) % | Patients with at least 1 TEAE, % (Male (N = 2927)): (82.5) % | TEAE: GI disorders, % (Male (N = 2927)): (30.9) % | TEAE: General disorders and administration site condition, % (Male (N = 2927)): (25.1) % | TEAE: Musculoskeletal and connective tissue disorders, % (Male (N = 2927)): (35.2) % | TEAE: Nervous system disorders, % (Male (N = 2927)): (23.3) % | TEAE: Respiratory, thoracic, and mediastinal disorders, % (Male (N = 2927)): (24.5) % | Patients with at least 1 TEAE, % [2]: (81.1) % | TEAE: GI disorders, % [2]: (32.7) % | TEAE: General disorders and administration site condition, % [2]: (25.1) % | TEAE: Musculoskeletal and connective tissue disorders, % [2]: (35.5) % | TEAE: Nervous system disorders, % [2]: (24.6) % | TEAE: Respiratory, thoracic, and mediastinal disorders, % [2]: (24.0) % | Patients with at least 1 TEAE, % (Race Non-white (N = 398)): (81.4) % | TEAE: GI disorders, % (Race Non-white (N = 398)): (28.9) % | TEAE: General disorders and administration site condition, % (Race Non-white (N = 398)): (25.4) % | TEAE: Musculoskeletal and connective tissue disorders, % (Race Non-white (N = 398)): (30.9) % | TEAE: Nervous system disorders, % (Race Non-white (N = 398)): (23.4) % | TEAE: Respiratory, thoracic, and mediastinal disorders, % (Race Non-white (N = 398)): (23.9) % | Patients with at least 1 TEAE, % (Race White (N = 3691)): (81.8) % | TEAE: GI disorders, % (Race White (N = 3691)): (33.5) % | TEAE: General disorders and administration site condition, % (Race White (N = 3691)): (25.2) % | TEAE: Musculoskeletal and connective tissue disorders, % (Race White (N = 3691)): (36.4) % | TEAE: Nervous system disorders, % (Race White (N = 3691)): (24.7) % | TEAE: Respiratory, thoracic, and mediastinal disorders, % (Race White (N = 3691)): (24.2) % | Patients with at least 1 TEAE, % (Region Asia Pacific (N = 130)): (76.9) % | TEAE: GI disorders, % (Region Asia Pacific (N = 130)): (18.5) % | TEAE: General disorders and administration site condition, % (Region Asia Pacific (N = 130)): (22.3) % | TEAE: Musculoskeletal and connective tissue disorders, % (Region Asia Pacific (N = 130)): (17.7) % | TEAE: Nervous system disorders, % (Region Asia Pacific (N = 130)): (20.8) % | TEAE: Respiratory, thoracic, and mediastinal disorders, % (Region Asia Pacific (N = 130)): (17.7) % | Patients with at least 1 TEAE, % [3]: (58.1) % | TEAE: GI disorders, % [3]: (11.9) % | Patients with at least 1 TEAE, % (Region Westernized (N = 2906)): (90.5) % | TEAE: GI disorders, % (Region Westernized (N = 2906)): (41.3) % | TEAE: General disorders and administration site condition, % (Region Westernized (N = 2906)): (32.2) % | TEAE: Musculoskeletal and connective tissue disorders, % (Region Westernized (N = 2906)): (46.4) % | TEAE: Nervous system disorders, % (Region Westernized (N = 2906)): (30.0) %
